Consider one compound from patent US20130237557A1, “TREATMENT” (UCL BUSINESS PLC, priority 2010, published 2013).

Experiment [1] has as its system sham operated rat. The experiment is described as follows: Haemodynamics in sham operated rats treated with alpha 2a antagonist. It counts as in vivo. Here is the method: (§1) 29 bile duct ligated rats and 17 sham operated rats were studied at the end of four weeks. The animals were randomised to receive a placebo (saline) or an alpha 2a antagonist (BRL 44408, Sigma, UK). The dose applied was 10 mgs/Kg by sub cutaneous injection: two doses were delivered 24 hours prior to study.
(§2) Mean arterial pressure was measured via a transducer through the left carotid artery. Portal pressure readings were taken by direct puncture of portal vein and transducer. Portal vein and hepatic artery flow measurements were done with a transonic flow probe and meter. All measurements were done in triplicates and recorded in data collection sheets.
(§3) Data are shown as median (range) or mean±standard error (SEM). Two tailed unpaired t-test was used to define difference between the means of normally distributed data of equal variance. For data that was not equally distributed, a Mann-Whitney test was used. Comparison of multiple groups was by analysis of variance (ANOVA) with a Bonferroni correction for multiple comparison.

Experiment [2] has as its system bile duct ligated (BDL) rat. The experiment is described as follows: Haemodynamics in bile duct ligated (BDL) rats treated with alpha 2a antagonist. It counts as in vivo. The following applies: for mean arterial pressure (MAP): two doses 24 hours prior to study, vs placebo/untreated BDL; for hepatic arterial blood flow: vs BDL treated with saline, Transonic flow probe.
Text: (§4) These experiments utilised an established animal model of cirrhosis, the bile duct ligated (BDL) rat. BDL rats may be generated by methods known in the art. For example, male Sprague-Dawley rats (200-250 g) may be used for this procedure. Following anaesthetisation, a mid-line laparotamy may be performed, the bile duct exposed, triply ligated with 4.0 silk suture, and severed between the second and third ligature. The wound is then closed in layers with absorbable suture, and the animal allowed to recover in a quiet room before being returned to the animal storage facility.
as §1, §2, §3

Experiment [3] has as its system sham operated rat. In words: Plasma biochemistry in sham operated rats (colorimetry, Cobas Integra). It counts as in vivo. The following applies: sham rats treated vs sham operated rats. Here is the method:
as §1
(§5) Plasma biochemistry was measured by colorimetry using a Cobas Integra. Alpha 2a adrenergic receptor (ADRA 2a) and Nuclear Factor κ B (NFκB) protein expression were assessed by western blotting. ADRA2a expression was determined by immunohistochemistry.
as §3

The subject of experiment [4] is bile duct ligated (BDL) rat. In words: Brain water content in BDL rats. It counts as in vivo. The following applies: vs untreated BDL.
Text: as §4, §1
The brain water content signifies the amount of brain swelling that occurs as a result of inflammation in the brain.

Experiment [5] concerns Nuclear Factor κ B (NFκB). In words: NFκB protein expression in liver tissue of BDL rats by western blotting. The following applies: vs untreated BDL. It counts as in vivo, rat.
Text: as §4, §1, §5
The protein expression was assessed by the western blotting technique. NFkB is an important regulator of cell signalling pathways including apoptosis and inflammation.
(In general: A western blot detects proteins with antibodies after separation by electrophoresis.)

The test system of experiment [6] is bile duct ligated (BDL) rat. In words: Plasma biochemistry in BDL rats (colorimetry, Cobas Integra). It counts as in vivo.
Text: as §4, §1, §5, §3

Entries after “also recorded” stand apart in the source; their conditions may differ.

For the compound `CC1c2ccccc2CN1CC1=NCCN1` (centres unmarked) [BRL 44408, 2-[(4,5-Dihydro-1H-imidazol-2-yl)methyl]-2,3-dihydro-1-methyl-1H-isoindole], the “mean arterial pressure (MAP)” value was “no difference” in the experiment on sham operated rat [1] (sham operated rats, 10 mgs/Kg sub cutaneous, treated vs untreated sham); “significantly improved; also recorded: increased” in experiment [2] (BDL rats, 10 mgs/Kg sub cutaneous); “significant increase” in experiment [2] (BDL rats, 10 mgs/Kg sub cutaneous, listed as ADRA2a antagonist). In addition, the “hepatic arterial blood flow” value in the experiment with sham operated rat [1] (sham operated rats, vs sham treated with saline) is on record as “improvement”; in experiment [2] (BDL rats), “markedly increased”; in experiment [2] (BDL rats, listed as BRL44408), “improved”. Also, the portal pressure entry is listed as “no difference” with sham operated rat [1] (sham rats treated vs saline); 11.4±3.4 mmHg in experiment [2] (BDL rats, 10 mgs/Kg sub cutaneous, two doses, treated group value (placebo 18.0±3.7), p<0.001); “significantly reduced; also recorded: lowered” in experiment [2] (BDL rats, vs BDL rats treated with saline, change in words). Also, the intra hepatic resistance result is “no difference” in the experiment with sham operated rat [1] (sham rats treated vs sham rats); 0.5±0.1 mmHg/ml/min in experiment [2] (BDL rats, post treatment value (untreated 1.1±0.2), p<0.05, portal pressure divided by hepatic blood flow); “significantly reduced; also recorded: lowered” in experiment [2] (BDL rats, vs untreated BDL, change in words). Also, the cardiac output entry in experiment [2] (BDL rats, heart rate x stroke volume from echocardiogram, vs untreated BDL) was “improved significantly”. For the same compound, the “portal venous blood flow” value in experiment [2] (treated group vs placebo) is listed as “without significant change”. The plasma creatinine result is reported as “no difference” with sham operated rat [3] and “trend towards reduction; also recorded: improved; also recorded: reduced” in experiment [6] (vs untreated BDL, marker for renal function). In experiment [4], the brain water content result is recorded as “significantly decreased; also recorded: reduced”. Also, the “NFkB protein expression in the liver tissue” value in experiment [5] was “reduced”. In addition, the “liver specific alanine aminotransferase (ALT)” value in experiment [6] (p=0.5) was “non significant increase”. Moreover, in experiment [6] (vs untreated BDL), the plasma ammonia entry is reported as “trend towards reduction; also recorded: reduced”. Besides, the “plasma aspartate aminotransaminase (AST)” value in experiment [6] (vs untreated BDL) is “significant reduction; also recorded: reduced”. For the same compound, the plasma lactate entry is “significant reduction” in experiment [6] (vs untreated BDL) and “significantly reduced” in experiment [6] (vs untreated BDL, listed as BRL).
